Assay results as given in US6919425B2, “Isolation of a cell-specific internalizing peptide that infiltrates tumor tissue for targeted drug delivery” (Board of Regents, The University of Texas System, priority 2000, dated 2005).
“Also recorded” adds a separate entry of the source. Blank lines part the entries; values can stand above or below the compound they belong to. Starred links: 1 amine or outer side, 2 acyl side, 3 side chain; linkers in the order of their positions; H or OH if unused. Positions of bridges follow the written chain, without caps; N, C: chain ends. Non-standard residues stand in square brackets, D forms with d. Residues, ends and D or L forms follow the SMILES beside them. Chains are numbered I, II in the order given. Actinocin(9to1) = Cc1c2oc3c(C)ccc(C(=O)[*:1])c3nc-2c(C(=O)[*:2])c(N)c1=O; NMeV = CN[C@H](C(=O)O)C(C)C; Sar = CNCC(=O)O

Legend:
[1] = cited from earlier work
[2] = Toxicity, immunogenicity and stability in HN-1 injected mice; type: in vivo
[3] = mouse, in vivo; cited from earlier work

Compound: CC[C@]1(O)C[C@H]2CN(CCc3c([nH]c4ccccc34)[C@@](C(=O)OC)(c3cc4c(cc3OC)N(C=O)[C@H]3[C@@](O)(C(=O)OC)[C@H](OC(C)=O)[C@]5(CC)C=CCN6CC[C@]43[C@@H]65)C2)C1 [Vincristine]
- terminal half-life of clearance from the plasma ([1]; multiphasic): about 24 hours

Compound: CC[C@H](C)[C@H](NC(=O)[C@H](CC(N)=O)NC(=O)[C@H](CC(C)C)NC(=O)[C@@H]1CCCN1C(=O)[C@H](CO)NC(=O)[C@@H](N)[C@@H](C)O)C(=O)N[C@@H](Cc1c[nH]cn1)C(=O)N[C@@H](CC(N)=O)C(=O)NCC(=O)N[C@@H](CCC(N)=O)C(=O)N[C@@H](CCCCN)C(=O)N[C@@H](CC(C)C)C(N)=O [HN-1] (H-TSPLNIHNGQKL-NH2; N-terminus and C-terminus assumed)
- toxicity ([2]; histology of organs of injected mice): no histological evidence of organotoxicity; also recorded: nontoxic
- immunogenicity ([2]; mouse, in vivo): nonimmunogenic
- protection of cargo during transit ([2]; mouse, in vivo): protects its “cargo” during transit; also recorded: protects its cargo during transit
- stability in vivo ([2]; shown by detecting intact peptide in blood 24 h after injection): stable in vivo

- permeability of the dyes themselves (MDA177Tu cells): impermeable
Compound: O=C1OC2(c3ccc(O)cc3Oc3cc(O)ccc32)c2ccccc21 [fluorescein]

Compound: CC[C@]1(O)C[C@@H]2CN(CCc3c([nH]c4ccccc34)[C@@](C(=O)OC)(c3cc4c(cc3OC)N(C)[C@H]3[C@@](O)(C(=O)OC)[C@H](OC(C)=O)[C@]5(CC)C=CCN6CC[C@]43[C@@H]65)C2)C1 [Vinblastine]
- dose excreted / detected intact in the urine ([1]; in vivo): Approximately 15%
- half-life of disappearance from plasma after distribution (first of two) ([1]; intravenous injection): approximately 1 hours
- half-life of disappearance from plasma after distribution (second of two) ([1]; intravenous injection): ~20 h

Compound: O=NN(CCCl)C(=O)NC1CCCCC1 [Lomustine, 1-(2-chloro-ethyl)-3-cyclohexyl-1nitrosourea]
- tissue levels relative to plasma levels ([1]; in vivo, iv): comparable

Compound: Cc1c2oc3c(C)ccc(C(=O)N[C@@H]4C(=O)N[C@H](C(C)C)C(=O)N5CCC[C@H]5C(=O)N(C)CC(=O)N(C)[C@@H](C(C)C)C(=O)O[C@@H]4C)c3nc-2c(C(=O)N[C@@H]2C(=O)N[C@H](C(C)C)C(=O)N3CCC[C@H]3C(=O)N(C)CC(=O)N(C)[C@@H](C(C)C)C(=O)O[C@@H]2C)c(N)c1=O [Actinomycin D] (I: T[dV]P[Sar][NMeV] / II: T[dV]P[Sar][NMeV]; ester I:1-I:C, II:1-II:C; linker I:N-II:N via Actinocin(9to1))
- dose excreted / detected intact in the urine ([1]; in vivo): 10%

Compound: Bleomycin
- concentrations in hematopoietic tissue / bone marrow [3]: low concentrations
- concentrations in skin, lungs, kidneys, peritoneum and lymphatics [3]: high concentrations
